How the values were obtained:
[1] = target: Induced myeloid leukemia cell differentiation protein Mcl-1 (Homo sapiens, UniProt Q07820); assay: Inhibition of Mcl1 protein by Mcl1/Bak fluorescence resonance assay
[2] = test system: HCT-116; assay: Cytotoxicity against human HCT116 cells after 72 hrs by MTS/PMS assay; assay type: functional, cell-based; settings: HCT-116, 72 h

Induced myeloid leukemia cell differentiation protein Mcl-1, sequence (Q07820 whole entry): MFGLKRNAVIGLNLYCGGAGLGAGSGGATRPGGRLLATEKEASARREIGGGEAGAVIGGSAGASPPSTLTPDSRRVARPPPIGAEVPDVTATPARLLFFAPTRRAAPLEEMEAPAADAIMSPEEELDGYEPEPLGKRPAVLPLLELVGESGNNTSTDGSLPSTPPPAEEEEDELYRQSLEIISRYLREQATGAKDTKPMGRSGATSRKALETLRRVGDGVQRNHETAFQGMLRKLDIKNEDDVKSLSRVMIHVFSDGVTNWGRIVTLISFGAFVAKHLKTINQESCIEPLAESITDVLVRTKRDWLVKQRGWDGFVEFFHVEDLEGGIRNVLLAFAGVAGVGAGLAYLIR

Row | SMILES | IC50 [1] [µM] | IC50 [2] [µM]
1 | C=C1CO[C@@]2(OC)[C@H]3O[C@]34[C@H](OC(=O)C(O)(CO)CC(C)CC(C)CC)CC[C@H](C)[C@@]4(C)C[C@@H]12 (stereo partly drawn) | 12.5 | 
2 | C=C1CO[C@@]2(O)[C@H]3O[C@]34[C@H](OC(=O)C(O)(CO)CC(C)CC(C)CC)CC[C@H](C)[C@@]4(C)C[C@@H]12 (stereo partly drawn) [CRYPTOSPHAEROLIDE] | 11.4 | 4.5

Source: ChEMBL document CHEMBL1157838, “Cryptosphaerolide, a cytotoxic Mcl-1 inhibitor from a marine-derived ascomycete related to the genus Cryptosphaeria” (J Nat Prod, 2010)
